This is an account of results in US10449269B2, “Particle conjugated prosthetic patches and methods of making and using thereof” (Yale University, priority 2016, dated 2019).

Series [1] deals with TGF-β1-induced collagen Iα1 mRNA. To be noted: cited from earlier work.
Series [2] has as its system TGF-β1-induced PAI-1 mRNA. The note with it: cited from earlier work.
The test system of series [3] is TGF-β1-induced fibronectin mRNA. To be noted: cited from earlier work.
Series [4] concerns TGF-β1-induced fibronectin protein. The note with it: cited from earlier work.
The target in series [5] is T1, nodal type I receptor ALK7 (Homo sapiens, UniProt Q8NER5).
T1 sequence (Q8NER5 21-493): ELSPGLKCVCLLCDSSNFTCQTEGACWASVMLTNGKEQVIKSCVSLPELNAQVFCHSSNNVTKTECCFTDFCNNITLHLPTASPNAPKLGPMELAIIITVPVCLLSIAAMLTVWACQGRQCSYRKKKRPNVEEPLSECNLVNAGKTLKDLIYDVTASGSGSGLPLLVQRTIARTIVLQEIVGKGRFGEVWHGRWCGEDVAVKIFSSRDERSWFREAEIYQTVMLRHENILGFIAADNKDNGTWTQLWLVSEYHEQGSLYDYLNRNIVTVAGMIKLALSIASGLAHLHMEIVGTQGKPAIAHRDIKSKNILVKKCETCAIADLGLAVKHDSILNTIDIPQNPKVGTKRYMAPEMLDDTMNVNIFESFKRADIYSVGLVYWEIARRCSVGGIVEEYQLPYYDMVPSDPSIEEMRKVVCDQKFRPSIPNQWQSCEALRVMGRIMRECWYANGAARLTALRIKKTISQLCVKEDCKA
The note with it: cited from earlier work.

The nature of series [6]: TGF-β1 release from NP patches in PBS (Micro BCA). The format is physicochemical. To be noted: in vitro. How it is done:
Pericardial patches were covalently modified using NP loaded with TGF-β1. TGF-β1 (4 μg) was dissolved in PBS (200 μL) and added to chloroform (2 mL) containing carboxylated poly(lactic-coglycolic acid) (PLGA) (100 mg). The mixture was then added drop-wise to 5% polyvinyl alcohol (PVA) (4 mL) and sonicated three times to form NP. The NP were dispersed in 0.2% PVA solution (200 mL) to evaporate the solvent for 2 h while stirring (40 ng TGF-β1/mg NP, […]). Patches (7 mm×5 mm) were conjugated with the NP using ethyl (dimethylaminopropyl) carbodiimide/N-hydroxysuccinimide (EDC/NHS) chemistry, as discussed above. EDC (20 μmol/mL) and NHS (10 μmol/mL) were dissolved in MES solution (0.1 M; pH 5) for the conjugation. Carboxyl groups on the NP were activated using EDC (1 mL) for 30 min and substituted with NHS by adding NHS (1 mL) for 30 min. The solution pH was raised from 5 to 8 using NaOH (1 M). Patches were then placed into the activated NP suspension and incubated at 37° C. overnight. To assess TGF-β1 release from NP patches in vitro, the patches were incubated in PBS at 37° C. The supernatant was collected at the desired time points and used to quantify TGF-β1 using a Micro BCA Protein Assay Kit (Thermo Fisher Scientific).

`NC(=O)c1ccc(-c2nc(-c3ccc4c(c3)OCO4)c(-c3ccccn3)[nH]2)cc1` [SB 431542]: the IC50 in series [1] is 60 nM; in series [2] it was 50 nM; in series [3] it was 62 nM; in series [4], 22 nM. For the same compound, the “inhibition of ALK7” value in series [5] was “inhibits”.
Take “TGF β1: polypeptide member of the transforming growth factor beta superfamily of cytokines”: in series [6], the “duration of sustained release of TGF-β1” value was 2-3 weeks, the “period in which cumulative release was highest (first days)” value is recorded as 5 days and the “time until which release slowly decreased” value is on record as 21 days.

One may read the IC50 as the concentration at which inhibition is half-maximal.
